The source of these data is ChEMBL document CHEMBL1152560, “Substituted 2-arylbenzothiazoles as kinase inhibitors: hit-to-lead optimization” (Bioorg Med Chem, 2009).

In assay [1] the target is Casein kinase I isoform gamma-1 (Homo sapiens) (UniProt Q9HCP0). Briefly: Residual activity of CK1gamma1 at 1 uM by microplate scintillation counting.
For assay [2], the target named is Dual specificity tyrosine-phosphorylation-regulated kinase 1A (Homo sapiens) (UniProt Q13627). Briefly: Residual activity of DYRK1A at 1 uM by microplate scintillation counting.
Assay [3] concerns the target Serine/threonine-protein kinase PLK3 (Homo sapiens) (UniProt Q9H4B4). Kind of assay: Residual activity of PLK3 at 10 uM by microplate scintillation counting.
Assay [4] deals with Protein kinase C beta type (Homo sapiens) (UniProt P05771). Briefly: Residual activity of PKCbeta1 at 1 uM by microplate scintillation counting.
For assay [5], the target named is Maternal embryonic leucine zipper kinase (Homo sapiens) (UniProt Q14680). Kind of assay: Residual activity of MELK at 1 uM by microplate scintillation counting.
In assay [6] the target is T1, Serine/threonine-protein kinase D2 (Homo sapiens) (UniProt Q9BZL6).
T1 sequence (whole entry): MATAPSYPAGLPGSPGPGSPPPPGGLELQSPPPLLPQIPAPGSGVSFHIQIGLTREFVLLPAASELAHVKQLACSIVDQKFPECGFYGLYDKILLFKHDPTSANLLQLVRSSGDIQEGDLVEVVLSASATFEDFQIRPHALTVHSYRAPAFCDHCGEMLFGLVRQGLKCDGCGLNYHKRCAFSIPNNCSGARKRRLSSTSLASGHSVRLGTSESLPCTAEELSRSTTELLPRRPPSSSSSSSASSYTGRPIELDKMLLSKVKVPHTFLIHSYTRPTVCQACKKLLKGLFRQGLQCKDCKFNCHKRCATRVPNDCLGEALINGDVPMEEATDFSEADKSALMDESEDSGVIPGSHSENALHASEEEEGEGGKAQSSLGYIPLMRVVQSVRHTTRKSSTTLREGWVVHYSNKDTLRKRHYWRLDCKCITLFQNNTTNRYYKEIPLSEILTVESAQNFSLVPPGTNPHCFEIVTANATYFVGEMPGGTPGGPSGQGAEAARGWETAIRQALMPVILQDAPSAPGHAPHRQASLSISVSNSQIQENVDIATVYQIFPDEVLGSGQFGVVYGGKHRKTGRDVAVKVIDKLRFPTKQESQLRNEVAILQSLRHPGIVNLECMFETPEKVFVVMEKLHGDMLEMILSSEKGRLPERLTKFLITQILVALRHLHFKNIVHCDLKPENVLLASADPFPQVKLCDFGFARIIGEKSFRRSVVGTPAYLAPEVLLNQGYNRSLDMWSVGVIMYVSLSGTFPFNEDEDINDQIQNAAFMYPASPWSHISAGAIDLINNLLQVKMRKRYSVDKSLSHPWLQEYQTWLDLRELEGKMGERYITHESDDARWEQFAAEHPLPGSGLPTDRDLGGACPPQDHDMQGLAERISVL
Briefly: Residual activity of PRKD2 at 1 uM by microplate scintillation counting.

Assay [7] is described as follows: Residual activity of S6K at 1 uM by microplate scintillation counting.
The target in assay [8] is Serine/threonine-protein kinase Chk2 (Homo sapiens) (UniProt O96017). Briefly: Residual activity of CHK2 at 10 uM by microplate scintillation counting.
For assay [9], the target named is Dual specificity tyrosine-phosphorylation-regulated kinase 1A (Homo sapiens) (UniProt Q13627). Kind of assay: Residual activity of DYRK1A at 10 uM by microplate scintillation counting.
Assay [10] has as its target Glycogen synthase kinase-3 beta (Homo sapiens) (UniProt P49841). Kind of assay: Residual activity of GSK3-beta at 10 uM by microplate scintillation counting.
In assay [11] the target is Leukocyte tyrosine kinase receptor (Homo sapiens) (UniProt P29376). Kind of assay: Residual activity of LTK at 10 uM by microplate scintillation counting.
In assay [12] the target is Hepatocyte growth factor receptor (Homo sapiens) (UniProt P08581). Kind of assay: Residual activity of MET at 10 uM by microplate scintillation counting.
Assay [13] has as its target Serine/threonine-protein kinase PAK 4 (Homo sapiens) (UniProt O96013). Kind of assay: Residual activity of PAK4 at 10 uM by microplate scintillation counting.
The target of assay [14] is Tyrosine-protein kinase receptor UFO (Homo sapiens) (UniProt P30530). Kind of assay: Residual activity of AXL at 0.1 uM by microplate scintillation counting.
Assay [15] has as its target Calcium/calmodulin-dependent protein kinase type II subunit alpha (Homo sapiens) (UniProt Q9UQM7). Briefly: Residual activity of CAMK2A at 0.1 uM by microplate scintillation counting.
Assay [16] has as its target Calcium/calmodulin-dependent protein kinase kinase 2 (Homo sapiens) (UniProt Q96RR4). Briefly: Residual activity of CAMKK2 at 0.1 uM by microplate scintillation counting.
The target in assay [17] is Casein kinase I isoform delta (Homo sapiens) (UniProt P48730). Kind of assay: Residual activity of CK1delta at 0.1 uM by microplate scintillation counting.
Assay [18] concerns the target T2, Serine/threonine-protein kinase Sgk3 (Homo sapiens) (UniProt Q96BR1).
T2 sequence (whole entry): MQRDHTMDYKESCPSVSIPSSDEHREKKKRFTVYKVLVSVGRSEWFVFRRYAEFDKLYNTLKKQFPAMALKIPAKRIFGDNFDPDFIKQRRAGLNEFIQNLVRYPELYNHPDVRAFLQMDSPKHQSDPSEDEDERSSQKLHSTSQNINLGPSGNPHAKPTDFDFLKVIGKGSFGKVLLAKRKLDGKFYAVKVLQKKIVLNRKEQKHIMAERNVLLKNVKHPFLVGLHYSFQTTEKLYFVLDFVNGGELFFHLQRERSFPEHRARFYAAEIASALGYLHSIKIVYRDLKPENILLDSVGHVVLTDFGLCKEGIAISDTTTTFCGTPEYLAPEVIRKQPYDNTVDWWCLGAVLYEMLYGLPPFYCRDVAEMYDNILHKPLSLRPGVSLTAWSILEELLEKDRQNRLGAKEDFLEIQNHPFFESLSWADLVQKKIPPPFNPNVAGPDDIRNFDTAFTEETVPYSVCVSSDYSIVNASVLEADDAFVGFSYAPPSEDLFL
Briefly: Residual activity of SGK3 at 10 uM by microplate scintillation counting.

Assay [19] has as its target Ribosomal protein S6 kinase alpha-1 (Homo sapiens) (UniProt Q15418). Kind of assay: Residual activity of RPS6KA1 at 0.1 uM by microplate scintillation counting.
Assay [20] has as its target T2, Serine/threonine-protein kinase Sgk3 (Homo sapiens). Kind of assay: Residual activity of SGK3 at 0.1 uM by microplate scintillation counting.
In assay [21] the target is Serine/threonine-protein kinase WNK3 (Homo sapiens) (UniProt Q9BYP7). Briefly: Residual activity of WNK3 at 10 uM by microplate scintillation counting.

Sequence of Ribosomal protein S6 kinase alpha-1 (Homo sapiens) (Q15418 whole entry): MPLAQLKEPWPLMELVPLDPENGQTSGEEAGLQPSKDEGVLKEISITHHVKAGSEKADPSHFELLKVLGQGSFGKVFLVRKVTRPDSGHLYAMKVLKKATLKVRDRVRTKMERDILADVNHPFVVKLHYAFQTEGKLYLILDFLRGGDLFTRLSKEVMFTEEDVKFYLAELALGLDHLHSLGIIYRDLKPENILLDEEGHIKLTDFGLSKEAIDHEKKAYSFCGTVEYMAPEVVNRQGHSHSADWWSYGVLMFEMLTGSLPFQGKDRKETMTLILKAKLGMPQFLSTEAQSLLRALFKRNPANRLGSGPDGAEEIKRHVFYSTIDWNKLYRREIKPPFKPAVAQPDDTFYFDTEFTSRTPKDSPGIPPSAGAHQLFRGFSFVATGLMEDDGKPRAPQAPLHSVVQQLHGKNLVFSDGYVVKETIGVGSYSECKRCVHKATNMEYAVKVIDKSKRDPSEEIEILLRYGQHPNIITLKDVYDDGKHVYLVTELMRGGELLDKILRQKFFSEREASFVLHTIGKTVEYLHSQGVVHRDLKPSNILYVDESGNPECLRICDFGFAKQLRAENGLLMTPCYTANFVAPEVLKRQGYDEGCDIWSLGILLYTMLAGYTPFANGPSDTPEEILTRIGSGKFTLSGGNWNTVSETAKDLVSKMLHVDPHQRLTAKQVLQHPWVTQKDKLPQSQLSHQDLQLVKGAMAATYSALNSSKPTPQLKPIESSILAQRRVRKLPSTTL
Sequence of Leukocyte tyrosine kinase receptor (Homo sapiens) (P29376 whole entry): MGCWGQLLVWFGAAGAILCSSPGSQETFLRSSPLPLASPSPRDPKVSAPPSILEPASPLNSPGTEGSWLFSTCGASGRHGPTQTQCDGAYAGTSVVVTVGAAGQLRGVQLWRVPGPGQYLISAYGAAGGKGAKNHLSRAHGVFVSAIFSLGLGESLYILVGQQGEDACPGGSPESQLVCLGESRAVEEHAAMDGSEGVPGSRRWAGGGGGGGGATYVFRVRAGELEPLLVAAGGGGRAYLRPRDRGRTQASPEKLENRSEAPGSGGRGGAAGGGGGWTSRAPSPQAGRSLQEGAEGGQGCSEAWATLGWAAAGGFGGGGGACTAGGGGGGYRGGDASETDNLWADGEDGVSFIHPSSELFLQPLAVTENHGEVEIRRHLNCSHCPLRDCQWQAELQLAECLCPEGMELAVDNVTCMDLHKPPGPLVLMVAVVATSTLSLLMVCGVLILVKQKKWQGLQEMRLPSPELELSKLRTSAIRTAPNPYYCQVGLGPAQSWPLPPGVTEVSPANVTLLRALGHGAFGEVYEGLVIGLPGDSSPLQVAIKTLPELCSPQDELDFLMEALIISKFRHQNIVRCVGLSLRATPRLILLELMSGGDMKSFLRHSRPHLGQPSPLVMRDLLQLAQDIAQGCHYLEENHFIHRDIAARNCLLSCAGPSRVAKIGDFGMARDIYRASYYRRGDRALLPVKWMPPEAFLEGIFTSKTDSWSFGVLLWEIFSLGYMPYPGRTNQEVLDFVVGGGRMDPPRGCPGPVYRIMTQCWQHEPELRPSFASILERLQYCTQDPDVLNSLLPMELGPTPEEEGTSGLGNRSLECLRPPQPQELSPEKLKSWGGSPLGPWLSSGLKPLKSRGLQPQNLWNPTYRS
Sequence of Calcium/calmodulin-dependent protein kinase type II subunit alpha (Homo sapiens) (Q9UQM7 whole entry): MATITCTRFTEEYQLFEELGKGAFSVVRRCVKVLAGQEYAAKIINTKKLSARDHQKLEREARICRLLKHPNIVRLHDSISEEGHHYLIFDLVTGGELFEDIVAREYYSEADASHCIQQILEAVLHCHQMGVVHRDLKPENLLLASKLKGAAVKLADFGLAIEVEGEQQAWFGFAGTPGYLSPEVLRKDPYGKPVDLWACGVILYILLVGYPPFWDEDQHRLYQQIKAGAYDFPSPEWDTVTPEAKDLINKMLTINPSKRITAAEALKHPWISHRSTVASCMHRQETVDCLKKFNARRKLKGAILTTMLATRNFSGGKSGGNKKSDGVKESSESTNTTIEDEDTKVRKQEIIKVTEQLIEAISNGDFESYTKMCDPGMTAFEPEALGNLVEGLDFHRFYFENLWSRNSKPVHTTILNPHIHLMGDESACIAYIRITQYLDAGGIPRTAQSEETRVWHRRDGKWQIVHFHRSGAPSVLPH
Sequence of Glycogen synthase kinase-3 beta (Homo sapiens) (P49841 whole entry, looked up): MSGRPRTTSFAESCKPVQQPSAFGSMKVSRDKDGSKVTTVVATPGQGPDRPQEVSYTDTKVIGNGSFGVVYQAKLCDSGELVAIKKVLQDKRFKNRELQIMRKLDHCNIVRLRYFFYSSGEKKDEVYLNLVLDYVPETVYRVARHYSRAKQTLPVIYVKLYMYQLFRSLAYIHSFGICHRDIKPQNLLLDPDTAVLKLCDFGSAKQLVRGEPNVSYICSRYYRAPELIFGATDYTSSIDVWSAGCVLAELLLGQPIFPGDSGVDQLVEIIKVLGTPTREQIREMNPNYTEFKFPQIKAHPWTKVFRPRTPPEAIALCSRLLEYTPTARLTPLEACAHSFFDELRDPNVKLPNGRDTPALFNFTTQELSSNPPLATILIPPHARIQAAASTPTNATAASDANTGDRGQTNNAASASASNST
Sequence of Casein kinase I isoform delta (Homo sapiens) (P48730 whole entry, looked up, canonical isoform): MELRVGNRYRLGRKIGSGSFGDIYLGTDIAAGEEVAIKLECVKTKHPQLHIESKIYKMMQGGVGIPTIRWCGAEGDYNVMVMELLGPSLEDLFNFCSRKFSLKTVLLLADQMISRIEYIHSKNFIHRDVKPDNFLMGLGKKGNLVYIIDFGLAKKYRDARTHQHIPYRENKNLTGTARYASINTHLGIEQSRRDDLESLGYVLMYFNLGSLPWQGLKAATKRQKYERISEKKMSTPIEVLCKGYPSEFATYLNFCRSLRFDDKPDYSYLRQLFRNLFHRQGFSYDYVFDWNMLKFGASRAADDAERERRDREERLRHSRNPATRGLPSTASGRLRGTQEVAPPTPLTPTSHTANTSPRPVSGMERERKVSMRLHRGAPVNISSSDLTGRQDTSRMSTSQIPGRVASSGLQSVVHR
Sequence of Protein kinase C beta type (Homo sapiens) (P05771 2-671 limits assumed): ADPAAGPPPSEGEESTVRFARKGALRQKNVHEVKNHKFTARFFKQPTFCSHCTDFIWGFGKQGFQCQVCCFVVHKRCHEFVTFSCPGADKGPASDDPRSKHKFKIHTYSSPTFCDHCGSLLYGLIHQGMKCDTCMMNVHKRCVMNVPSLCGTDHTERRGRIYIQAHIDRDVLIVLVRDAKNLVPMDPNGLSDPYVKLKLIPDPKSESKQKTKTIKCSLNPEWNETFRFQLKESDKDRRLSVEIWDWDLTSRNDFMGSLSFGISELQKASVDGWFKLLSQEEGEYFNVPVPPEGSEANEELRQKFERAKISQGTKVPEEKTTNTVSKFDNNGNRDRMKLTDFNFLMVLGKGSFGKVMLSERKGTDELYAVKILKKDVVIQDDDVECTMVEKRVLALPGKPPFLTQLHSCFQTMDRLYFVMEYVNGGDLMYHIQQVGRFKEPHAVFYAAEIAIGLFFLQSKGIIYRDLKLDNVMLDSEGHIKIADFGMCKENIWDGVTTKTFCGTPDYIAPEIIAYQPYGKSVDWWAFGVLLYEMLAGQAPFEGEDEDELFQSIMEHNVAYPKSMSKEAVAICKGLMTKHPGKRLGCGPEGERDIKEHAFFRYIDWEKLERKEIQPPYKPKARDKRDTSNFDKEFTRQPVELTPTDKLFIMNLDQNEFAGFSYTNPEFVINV
Sequence of Calcium/calmodulin-dependent protein kinase kinase 2 (Homo sapiens) (Q96RR4 2-588 limits assumed): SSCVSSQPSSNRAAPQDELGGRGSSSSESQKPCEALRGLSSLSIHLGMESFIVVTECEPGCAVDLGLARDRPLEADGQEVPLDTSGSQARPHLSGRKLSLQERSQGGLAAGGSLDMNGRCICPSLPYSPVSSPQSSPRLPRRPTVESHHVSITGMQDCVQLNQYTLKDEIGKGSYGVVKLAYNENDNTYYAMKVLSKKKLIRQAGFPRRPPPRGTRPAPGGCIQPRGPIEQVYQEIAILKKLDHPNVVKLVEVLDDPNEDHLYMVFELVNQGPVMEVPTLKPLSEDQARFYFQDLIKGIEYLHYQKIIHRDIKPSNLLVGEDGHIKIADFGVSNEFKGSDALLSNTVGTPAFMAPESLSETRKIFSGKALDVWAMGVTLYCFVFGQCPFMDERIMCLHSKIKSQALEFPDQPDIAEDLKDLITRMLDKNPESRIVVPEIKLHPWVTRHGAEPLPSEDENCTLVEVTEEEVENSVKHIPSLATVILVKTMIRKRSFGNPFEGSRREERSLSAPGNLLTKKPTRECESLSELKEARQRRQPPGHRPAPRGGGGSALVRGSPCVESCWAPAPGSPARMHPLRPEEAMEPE
Sequence of Serine/threonine-protein kinase PLK3 (Homo sapiens) (Q9H4B4 whole entry, looked up): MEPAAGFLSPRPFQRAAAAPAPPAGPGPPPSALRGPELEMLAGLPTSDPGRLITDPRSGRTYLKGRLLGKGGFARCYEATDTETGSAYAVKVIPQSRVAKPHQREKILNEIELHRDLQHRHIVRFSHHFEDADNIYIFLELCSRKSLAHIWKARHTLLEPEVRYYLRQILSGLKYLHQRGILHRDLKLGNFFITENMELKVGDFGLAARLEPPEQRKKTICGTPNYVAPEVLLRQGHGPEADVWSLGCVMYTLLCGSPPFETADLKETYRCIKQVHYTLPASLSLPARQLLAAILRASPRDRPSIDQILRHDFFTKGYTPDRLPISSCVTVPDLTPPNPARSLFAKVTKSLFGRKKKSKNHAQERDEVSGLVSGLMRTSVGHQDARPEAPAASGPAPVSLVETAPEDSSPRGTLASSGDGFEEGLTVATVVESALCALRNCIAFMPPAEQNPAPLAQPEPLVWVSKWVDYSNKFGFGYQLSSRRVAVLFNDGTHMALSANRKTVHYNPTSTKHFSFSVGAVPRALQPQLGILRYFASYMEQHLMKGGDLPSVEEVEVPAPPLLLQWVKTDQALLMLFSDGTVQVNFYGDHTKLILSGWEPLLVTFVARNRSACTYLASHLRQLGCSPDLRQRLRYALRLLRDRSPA

For orientation: residual activity means the signal under treatment as a percentage of the control signal. Consider `COc1cc2c(Oc3ccc(-c4nc5ccccc5s4)cc3)ncnc2cc1OCCCN1CCCC1`, for which the residual activity turned out to be 97% in assay [1]; 92% in assay [2]; 223% in assay [3]; 105% in [4]; 78% in [5]; 94% in [6]. Further, the residual activity in [7] was found to be 75%; in assay [8], 17%; in assay [9], 89%; in [10] it was 104%; in assay [11], 200%; in [12], 17%. Moreover, the residual activity came out at 91% in [13]; 96% in assay [14]; 85% in assay [15]; 91% in assay [16]; 95% in assay [17]; 98% in [18]. Besides, the residual activity is 79% in [19], 114% in assay [20] and 21% in assay [21].
Consider `COc1cc2c(Oc3ccc(-c4nc5ccccc5s4)cc3F)ncnc2cc1OCCCN1CCN(C)CC1`, for which the residual activity in assay [1] was 110%; in assay [2], 91%; in assay [3], 257%; in [4], 103%; in [5], 68%; in [6], 90%. The residual activity in [7] came to 95%; in assay [8] it was 9%; in assay [9] it was 101%; in assay [10], 98%; in [11] it was 89%; in assay [12], 8%. For the same molecule, the residual activity in assay [13] came out at 50%; in assay [14], 104%; in assay [15], 91%; in assay [16] it was 84%; in [17], 98%; in assay [18], 97%. The residual activity in [19] amounted to 86%; in assay [20], 104%; in assay [21], 39%.
Consider `COc1cc2c(Oc3ccc(-c4nc5ccccc5s4)cc3)ncnc2cc1OCCCN1CCN(C)CC1`, for which the residual activity was found to be 112% in assay [1]; 93% in [2]; 2% in assay [3]; 108% in assay [4]; 106% in [5]; 82% in [6]. The residual activity in assay [7] is 69%; in assay [8], 11%; in [9] it was 103%; in assay [10], 123%; in assay [11] it was 163%; in assay [12] it was 12%. Besides, the residual activity in assay [13] was 55%; in [14], 117%; in assay [15], 80%; in [16], 86%; in assay [17], 94%; in assay [18], 112%. In addition, the residual activity is 81% in assay [19], 91% in [20] and 23% in assay [21].
